Data on two compounds can be found in patent publication US7794994B2 (Kemeta, LLC, priority 2001, dated 2010).

The test system of series [1] is 3-enzyme system (S-ADH coupled to lactate dehydrogenase and pyruvate oxidase). The experiment in a line: S-ADH coupled to H2O2 formation electrochemical assay (3-enzyme system), interference compounds. The format is biochemical, X. autotrophicus Py2. Conditions: Acetone plus 10 mM ethanol, 50 μM isopropanol or 50 μM isobutanol; data not shown. How it is done:
Secondary alcohol dehydrogenase coupled to H2O2 formation electrochemical assay. […] Before measurements the electrode surface was polished using Al2O3 paste for 1 min. and then rinsed with deionized water, sonicated for 1 min. and rinsed with water again. The polished Pt electrode was then pretreated electrochemically by applying 10 cycles of 100 mV/s from +200 mV to +900 mV. All potentials were referenced versus a Ag/AgCl electrode (BAS part number MF-2078). Assays contained potassium phosphate (100 mM, pH 7.2), purified S-ADH (1 U/mL), NADH (201 μM), lactate (100 mM), lactate dehydrogenase (5 U/mL), pyruvate oxidase (4 U/mL), flavin adenine dinucleotide (0.01 mM), cocarboxylase (0.2 mM), in a total volume of 0.5 mL. […] After a 2 min. incubation period, the potential was stepped from open circuit to 350 mV.

For series [2] the following is noted: constant perfusion at 1.36 mmol/min. for three hours; cited from earlier work.

For the compound `CC(C)CO` [isobutanol], the “interference with the acetone measurement (current response)” value in series [1] was “do not interfere”.
In the case of `CC(=O)CC(=O)[O-].[Na+]` [Na acetoacetate], the “blood ketone body concentration at the end of perfusion” value in series [2] was 3 µmol·mL.
